Laboratory results published in article PMC7912516, “New Antimicrobials Based on the Adarotene Scaffold with Activity against Multi-Drug Resistant Staphylococcus aureus and Vancomycin-Resistant Enterococcus” (Antibiotics, 2021).
“And” between values parts separate entries of the source, which are not always exact repeats. Equal values may be shown once.

test system: S. aureus ATCC 25923 (reference strain); assay: MIC/MBC by broth micro-dilution (CLSI); assay type: cell-based; conditions: Staphylococcus aureus, ATCC25923, in square brackets, modal value
Experimental: (§1) To expand the previously obtained results compounds 16 and 17 were also tested on wider a selection of strains: two other MDR S. aureus and E. faecalis clinical isolates, the S. aureus ATCC 25923 and the E. faecalis ATCC 51299 reference strains. Compound 2, which was endowed with low antimicrobial activity, was tested as well, to confirm its low efficacy. Adarotene was used as control compound (Table 2).
(§2) MICs and MBCs were determined according to CLSI (Clinical and Laboratory Standards Institute) guidelines, in triplicate. Results are shown as modal values of the three replicates. According to MIC and MBC data, the killing rate was calculated as the ratio between MBC and MIC on which basis it is possible to define the compounds tested as bactericides (killing rate = 1–4), or bacteriostatic (killing rate > 4).
(§3) Preparation of the solution containing molecules: for each molecule to be tested, solutions were made as DMSO stock, with a concentration of 2.560 mg/mL. Scalar dilutions were than prepared directly on plates by using Mueller Hinton Broth (MHB) as a growth medium (range 0.5–256 µg/mL).
(§4) Bacterial suspension preparation: cryostrains preserved at −80 °C were recovered by incubation in growth medium (Brain Heart Infusion Broth, BHI) for 24–48 h at 35 ± 2 °C followed by passages in agar growth medium (Columbia Blood Agar). Colonies with less than 30 h were suspended in MHB with the purpose to prepare a bacterial suspension with a turbidity of 0.5 MF, containing approximately 1.5 × 10^8 cfu/mL. This suspension was than diluted in MHB until reaching a final concentration of 5 × 10^4 CFU/well. Simultaneously, check in broth-microdilution only with solvent (in order to exclude that the effect of growth inhibition might be due to the drug solution solvent), positive growth control in absence of DMSO and drug, and negative purity control only with injection broth were performed.
S. aureus ATCC 25923 (reference strain): mecA negative; multi-susceptible.

Row | SMILES | MBC
1 | CON=Cc1cc(/C=C/C(=O)O)ccc1-c1ccc(O)c(C23CC4CC(CC(C4)C2)C3)c1 [Compound 17] | 4 µg/mL and 10 µM

same assay, conditions: Staphylococcus aureus, ATCC25923, modal value

Row | SMILES | MIC
2 | O=C(O)C=Cc1ccc(-c2ccc(OCCCCO)c(C34CC5CC(CC(C5)C3)C4)c2)cc1 [Compound 2, 3-[3′-adamantan-1-yl-4′-(hydroxybutoxy)-biphenyl-4-yl]-acrylic acid] | 256 µg/mL and 572 µM
3 | CON=Cc1cc(/C=C/C(=O)O)ccc1-c1ccc(O)c(C23CC4CC(CC(C4)C2)C3)c1 [Compound 17] | 2 µg/mL and 5 µM

test system: tumor cell line H-460 NCI; assay: not given; design: method as in PMID 32920362; conditions: ± SD, ref [17], read-out: IC50 (concentration required for 50% inhibition of cell growth); cited from earlier work

Row | SMILES | IC50 [µM]
4 | CON=Cc1cc(/C=C/C(=O)O)ccc1-c1ccc(O)c(C23CC4CC(CC(C4)C2)C3)c1 [Compound 17] | > 10

test system: S. aureus strain 1 (MDR clinical isolate, MRSA, mecA positive); assay: MIC/MBC by broth micro-dilution (CLSI); assay type: cell-based, Staphylococcus aureus; conditions: S. aureus Strain 1; modal value of three replicates
Experimental: (§5) The compounds were initially tested with a methicillin-resistant S. aureus and an E. faecalis clinical isolates (details in the experimental section), two MDR strains according to definition by Magiorakos et al.. The activity of studied compounds was assessed by broth micro-dilution method. Minimal Inhibitory Concentration (MIC), and Minimal Bactericidal Concentration (MBC) were determined and possible bacteriostatic or bactericidal activity was also investigated.
as §2, §3, §4
S. aureus strain 1 (collection, MDR): mecA positive; MRSA, β-lactamase positive, resistant to ciprofloxacin, gentamicin and erythromycin.

Row | SMILES | MIC
5 | O=C(O)C=Cc1ccc(-c2ccc(OCCCCO)c(C34CC5CC(CC(C5)C3)C4)c2)cc1 [Compound 2, 3-[3′-adamantan-1-yl-4′-(hydroxybutoxy)-biphenyl-4-yl]-acrylic acid] | 256 µg/mL
6 | CON=Cc1cc(/C=C/C(=O)O)ccc1-c1ccc(O)c(C23CC4CC(CC(C4)C2)C3)c1 [Compound 17] | 4 [4] µg/mL

same assay, conditions: S. aureus and E. faecalis; bactericides killing rate = 1–4, bacteriostatic > 4

Row | SMILES | bactericidal or bacteriostatic activity (killing rate = MBC/MIC)
7 | CON=Cc1cc(/C=C/C(=O)O)ccc1-c1ccc(O)c(C23CC4CC(CC(C4)C2)C3)c1 [Compound 17] | bactericidal effect

same assay, conditions: Staphylococcus aureus, MRSA, S. aureus Strain 1; modal value of three replicates; read-out: MIC

Row | SMILES | MIC [µg/mL]
8 | O=C(O)C=Cc1ccc(-c2ccc(OCCCCO)c(C34CC5CC(CC(C5)C3)C4)c2)cc1 [Compound 2, 3-[3′-adamantan-1-yl-4′-(hydroxybutoxy)-biphenyl-4-yl]-acrylic acid] | > 256
9 | CON=Cc1cc(/C=C/C(=O)O)ccc1-c1ccc(O)c(C23CC4CC(CC(C4)C2)C3)c1 [Compound 17] | 4

same assay, conditions: Staphylococcus aureus, MRSA, S. aureus Strain 1; modal value; read-out: MIC

Row | SMILES | MIC [µM]
10 | O=C(O)C=Cc1ccc(-c2ccc(OCCCCO)c(C34CC5CC(CC(C5)C3)C4)c2)cc1 [Compound 2, 3-[3′-adamantan-1-yl-4′-(hydroxybutoxy)-biphenyl-4-yl]-acrylic acid] | 573
11 | CON=Cc1cc(/C=C/C(=O)O)ccc1-c1ccc(O)c(C23CC4CC(CC(C4)C2)C3)c1 [Compound 17] | 9

same assay, conditions: Staphylococcus aureus, MRSA; S. aureus Strain 1; in square brackets; modal value

Row | SMILES | MBC
12 | CON=Cc1cc(/C=C/C(=O)O)ccc1-c1ccc(O)c(C23CC4CC(CC(C4)C2)C3)c1 [Compound 17] | 4 µg/mL and 9 µM

test system: E. faecalis strain 2 (MDR clinical isolate); assay: MIC/MBC by broth micro-dilution (CLSI); assay type: cell-based; conditions: Enterococcus faecalis, in square brackets, modal value
Experimental: as §1, §2, §3, §4
E. faecalis strain 2 (collection, MDR) vanA/B negative; aminoglycosides high-level resistant to aminoglycosides (gentamicin and strseptomycin) and ampicillin.

Row | SMILES | MBC
13 | CON=Cc1cc(/C=C/C(=O)O)ccc1-c1ccc(O)c(C23CC4CC(CC(C4)C2)C3)c1 [Compound 17] | 16 µg/mL and 36 µM

same assay, conditions: Enterococcus faecalis, modal value

Row | SMILES | MIC
14 | O=C(O)C=Cc1ccc(-c2ccc(OCCCCO)c(C34CC5CC(CC(C5)C3)C4)c2)cc1 [Compound 2, 3-[3′-adamantan-1-yl-4′-(hydroxybutoxy)-biphenyl-4-yl]-acrylic acid] | 128 µg/mL and 286 µM
15 | CON=Cc1cc(/C=C/C(=O)O)ccc1-c1ccc(O)c(C23CC4CC(CC(C4)C2)C3)c1 [Compound 17] | 8 µg/mL and 18 µM

test system: E. faecalis strain 1 (MDR clinical isolate); assay: MIC/MBC by broth micro-dilution (CLSI); assay type: cell-based, Enterococcus faecalis; conditions: Enterococcus faecalis, in square brackets, modal value
Experimental: as §5, §2, §3, §4
E. faecalis strain 1 (collection, MDR) vanA/B negative; aminoglycosides high-level resistant to aminoglycosides (gentamicin and streptomycin) and ampicillin.

Row | SMILES | MBC
16 | CON=Cc1cc(/C=C/C(=O)O)ccc1-c1ccc(O)c(C23CC4CC(CC(C4)C2)C3)c1 [Compound 17] | 16 µg/mL and 38 µM

same assay, conditions: Enterococcus faecalis, modal value of three replicates, read-out: MIC

Row | SMILES | MIC [mg/L]
17 | O=C(O)C=Cc1ccc(-c2ccc(OCCCCO)c(C34CC5CC(CC(C5)C3)C4)c2)cc1 [Compound 2, 3-[3′-adamantan-1-yl-4′-(hydroxybutoxy)-biphenyl-4-yl]-acrylic acid] | > 256

same assay, conditions: Enterococcus faecalis, modal value, read-out: MIC

Row | SMILES | MIC [µM]
18 | O=C(O)C=Cc1ccc(-c2ccc(OCCCCO)c(C34CC5CC(CC(C5)C3)C4)c2)cc1 [Compound 2, 3-[3′-adamantan-1-yl-4′-(hydroxybutoxy)-biphenyl-4-yl]-acrylic acid] | 287
19 | CON=Cc1cc(/C=C/C(=O)O)ccc1-c1ccc(O)c(C23CC4CC(CC(C4)C2)C3)c1 [Compound 17] | 19

same assay, conditions: modal value of three replicates

Row | SMILES | MIC
20 | O=C(O)C=Cc1ccc(-c2ccc(OCCCCO)c(C34CC5CC(CC(C5)C3)C4)c2)cc1 [Compound 2, 3-[3′-adamantan-1-yl-4′-(hydroxybutoxy)-biphenyl-4-yl]-acrylic acid] | 128 mg/L
21 | CON=Cc1cc(/C=C/C(=O)O)ccc1-c1ccc(O)c(C23CC4CC(CC(C4)C2)C3)c1 [Compound 17] | 2 to 8 mg/L and 8 mg/L

test system: E. faecalis ATCC 51299 (reference strain, vanB positive); assay: MIC/MBC by broth micro-dilution (CLSI); assay type: cell-based; conditions: Enterococcus faecalis, ATCC51299, in square brackets, modal value
Experimental: as §1, §2, §3, §4
E. faecalis ATCC 51299 (reference strain): vanB positive.

Row | SMILES | MBC
22 | CON=Cc1cc(/C=C/C(=O)O)ccc1-c1ccc(O)c(C23CC4CC(CC(C4)C2)C3)c1 [Compound 17] | 32 µg/mL and 74 µM

same assay, conditions: Enterococcus faecalis, ATCC51299, modal value

Row | SMILES | MIC
23 | O=C(O)C=Cc1ccc(-c2ccc(OCCCCO)c(C34CC5CC(CC(C5)C3)C4)c2)cc1 [Compound 2, 3-[3′-adamantan-1-yl-4′-(hydroxybutoxy)-biphenyl-4-yl]-acrylic acid] | 64 µg/mL and 143 µM
24 | CON=Cc1cc(/C=C/C(=O)O)ccc1-c1ccc(O)c(C23CC4CC(CC(C4)C2)C3)c1 [Compound 17] | 8 µg/mL and 18 µM

test system: S. aureus strain 2 (MDR clinical isolate); assay: MIC/MBC by broth micro-dilution (CLSI); assay type: cell-based; conditions: Staphylococcus aureus, in square brackets, modal value
Experimental: as §1, §2, §3, §4
S. aureus strain 2 (collection, MDR): mecA negative; β-lactamase positive, resistant to erythromycin, gentamicin, clindamycin and fusidic acid.

Row | SMILES | MBC
25 | CON=Cc1cc(/C=C/C(=O)O)ccc1-c1ccc(O)c(C23CC4CC(CC(C4)C2)C3)c1 [Compound 17] | 32 µg/mL and 74 µM

same assay, conditions: Staphylococcus aureus, modal value

Row | SMILES | MIC
26 | O=C(O)C=Cc1ccc(-c2ccc(OCCCCO)c(C34CC5CC(CC(C5)C3)C4)c2)cc1 [Compound 2, 3-[3′-adamantan-1-yl-4′-(hydroxybutoxy)-biphenyl-4-yl]-acrylic acid] | 256 µg/mL and 572 µM
27 | CON=Cc1cc(/C=C/C(=O)O)ccc1-c1ccc(O)c(C23CC4CC(CC(C4)C2)C3)c1 [Compound 17] | 4 µg/mL and 10 µM
